Data as given in ChEMBL document CHEMBL5724914, “Linking interpersonal differences in gut microbiota composition and drug biotransformation activity” (2024).

Assays:
[1] = human gut metagenome, 24 h, 2 µM
[2] = (§1) The drug is tested on WLS-038 corresponding to human gut metagenome with ENA study accession number: PRJEB37062 and ENA sample accession number: ERS12561745 for biotransformation under anaerobic condition. The drug concentrations were measured over 9 timepoints collected between 0 and 24 hours of incubation by liquid-chromatography-coupled mass spectrometry (LC–MS); conditions: 2 µM
[3] = human gut metagenome, 24 h, 2 µM; remark: listed apart in the source
[4] = human gut metagenome, 24 h, 2 µM; remark: listed apart in the source
[5] = human gut metagenome, 24 h, 2 µM; remark: listed apart in the source
[6] = as §1, with “Z-003” for “WLS-038”, “pig” for “human”, “ERS12561803” for “ERS12561745”; conditions: 2 µM
[7] = as §1, with “Z-016” for “WLS-038”, “mouse” for “human”, “ERS12561815” for “ERS12561745”; conditions: 2 µM
[8] = as §1, with “WLS-240” for “WLS-038”, “ERS12561773” for “ERS12561745”; conditions: 2 µM
[9] = human gut metagenome, 24 h, 2 µM; remark: listed apart in the source
[10] = human gut metagenome, 24 h, 2 µM; remark: listed apart in the source
[11] = as §1, with “Z-022” for “WLS-038”, “mouse” for “human”, “ERS12561821” for “ERS12561745”; conditions: 2 µM
[12] = as §1, with “WLS-350” for “WLS-038”, “ERS12561789” for “ERS12561745”; conditions: 2 µM
[13] = as §1, with “Z-008” for “WLS-038”, “to” for “to human gut”, “ERS12561808” for “ERS12561745”; conditions: 2 µM
[14] = human gut metagenome, 24 h, 2 µM; remark: listed apart in the source
[15] = as §1, with “Z-004” for “WLS-038”, “to” for “to human gut”, “ERS12561804” for “ERS12561745”; conditions: 2 µM
[16] = human gut metagenome, 24 h, 2 µM; remark: listed apart in the source
[17] = as §1, with “Z-025” for “WLS-038”, “rabbit” for “human”, “ERS12561824” for “ERS12561745”; conditions: 2 µM
[18] = human gut metagenome, 24 h, 2 µM; remark: listed apart in the source
[19] = as §1, with “WLS-077” for “WLS-038”, “ERS12561750” for “ERS12561745”; conditions: 2 µM
[20] = human gut metagenome, 24 h, 2 µM; remark: listed apart in the source
Note: call rule not given here.

Compound	Bacterial Biotransformation [1]	Bacterial Biotransformation [2]	Bacterial Biotransformation [3]	Bacterial Biotransformation [4]	Bacterial Biotransformation [5]	Bacterial Biotransformation [6]	Bacterial Biotransformation [7]	Bacterial Biotransformation [8]	Bacterial Biotransformation [9]	Bacterial Biotransformation [10]	Bacterial Biotransformation [11]	Bacterial Biotransformation [12]	Bacterial Biotransformation [13]	Bacterial Biotransformation [14]	Bacterial Biotransformation [15]	Bacterial Biotransformation [16]	Bacterial Biotransformation [17]	Bacterial Biotransformation [18]	Bacterial Biotransformation [19]	Bacterial Biotransformation [20]
CSc1ccc2c(c1)C(N1CCN(C)CC1)Cc1ccccc1S2.O=C(O)/C=C\C(=O)O (configuration not stated)	Compound NOT metabolized	Compound NOT metabolized	Compound NOT metabolized	Compound NOT metabolized	Compound NOT metabolized	Compound metabolized	Compound metabolized	Compound NOT metabolized	Compound NOT metabolized	Compound NOT metabolized	Compound metabolized	Compound NOT metabolized	Compound NOT metabolized	Compound NOT metabolized	Compound metabolized	Compound NOT metabolized				
CCc1oc2ccccc2c1C(=O)c1cc(Br)c(O)c(Br)c1 [BENZBROMARONE]	Compound metabolized	Compound metabolized	Compound NOT metabolized	Compound NOT metabolized	Compound metabolized	Compound metabolized	Compound NOT metabolized	Compound metabolized	Compound NOT metabolized	Compound metabolized	Compound NOT metabolized	Compound NOT metabolized	Compound NOT metabolized	Compound metabolized	Compound NOT metabolized	Compound NOT metabolized	Compound NOT metabolized	Compound metabolized	Compound metabolized	
CCOC(=O)[C@H](CCc1ccccc1)N[C@@H](C)C(=O)N1CCC[C@H]1C(=O)O.O=C(O)/C=C\C(=O)O [ENALAPRIL MALEATE]	Compound NOT metabolized	Compound NOT metabolized	Compound NOT metabolized	Compound NOT metabolized	Compound NOT metabolized	Compound NOT metabolized		Compound NOT metabolized	Compound NOT metabolized	Compound NOT metabolized	Compound NOT metabolized	Compound NOT metabolized	Compound NOT metabolized	Compound NOT metabolized	Compound NOT metabolized	Compound NOT metabolized	Compound NOT metabolized	Compound NOT metabolized	Compound NOT metabolized	Compound NOT metabolized
CN1[C@@H]2CC[C@H]1C[C@@H](OC(=O)[C@H](CO)c1ccccc1)C2 [HYOSCYAMINE]				Compound NOT metabolized				Compound metabolized		Compound metabolized	Compound NOT metabolized				Compound NOT metabolized		Compound NOT metabolized			
COC1=C(OC)C(=O)C(CCCCCCCCCCO)=C(C)C1=O [IDEBENONE]		Compound metabolized			Compound metabolized	Compound metabolized	Compound metabolized		Compound metabolized	Compound metabolized	Compound NOT metabolized	Compound metabolized			Compound NOT metabolized	Compound metabolized	Compound metabolized	Compound NOT metabolized	Compound metabolized	Compound metabolized
C#C[C@]1(OC(C)=O)CC[C@H]2[C@@H]3CCC4=CC(=O)CC[C@@H]4[C@H]3CC[C@@]21C [NORETHINDRONE ACETATE]	Compound metabolized	Compound metabolized		Compound metabolized	Compound metabolized	Compound metabolized		Compound metabolized	Compound metabolized		Compound metabolized		Compound metabolized	Compound metabolized		Compound metabolized	Compound metabolized	Compound metabolized		
CC(=O)O[C@H]1C(=O)[C@@]2(C)[C@H]([C@H](OC(=O)c3ccccc3)[C@]3(O)C[C@H](OC(=O)[C@H](O)[C@@H](NC(=O)c4ccccc4)c4ccccc4)C(C)=C1C3(C)C)[C@]1(OC(C)=O)CO[C@@H]1C[C@@H]2O [PACLITAXEL]	Compound NOT metabolized	Compound metabolized	Compound NOT metabolized	Compound NOT metabolized	Compound NOT metabolized	Compound metabolized	Compound metabolized	Compound NOT metabolized	Compound NOT metabolized	Compound NOT metabolized	Compound metabolized	Compound NOT metabolized	Compound NOT metabolized	Compound metabolized	Compound NOT metabolized	Compound NOT metabolized	Compound metabolized	Compound NOT metabolized	Compound metabolized	
COc1ccc(Cc2nccc3cc(OC)c(OC)cc23)cc1OC [PAPAVERINE]		Compound NOT metabolized	Compound metabolized	Compound metabolized	Compound metabolized	Compound metabolized	Compound NOT metabolized		Compound NOT metabolized	Compound metabolized	Compound metabolized	Compound metabolized	Compound NOT metabolized	Compound metabolized	Compound NOT metabolized	Compound NOT metabolized	Compound metabolized	Compound metabolized	Compound NOT metabolized	Compound metabolized
CCCCCNC(=N)N/N=C/c1c[nH]c2ccc(OC)cc12.O=C(O)/C=C\C(=O)O [TEGASEROD MALEATE]	Compound NOT metabolized		Compound NOT metabolized	Compound NOT metabolized	Compound metabolized	Compound NOT metabolized	Compound NOT metabolized	Compound NOT metabolized	Compound NOT metabolized	Compound NOT metabolized	Compound NOT metabolized	Compound NOT metabolized	Compound NOT metabolized	Compound NOT metabolized	Compound NOT metabolized	Compound NOT metabolized		Compound NOT metabolized	Compound metabolized	Compound metabolized
